From ChEMBL document CHEMBL1201862, “PubChem BioAssay data set” (2004)
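Five concentrations, 48 hours, 96-well plates. The concentration for 50% growth inhibition is given as GI50.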 Active and inactive are the calls of the source. Rule as the data show it: active = GI50 up to about 1.1 µM and inactive = higher.

Assays:
Assay in all cases: NCI-60 cell line screen, 48 h
[1] = system: EKVX
[2] = system: MDA-MB-231
[3] = system: Malme-3M
[4] = system: UACC-257
[5] = system: SF-539
[6] = system: TK-10
[7] = system: UACC-62
[8] = system: HCT-15
[9] = system: UO-31
[10] = system: NCI/ADR-RES
[11] = system: SK-OV-3
[12] = system: OVCAR-8
[13] = system: SK-MEL-2
[14] = system: Hs-578T
[15] = system: MCF7
[16] = system: SNB-75
[17] = system: HOP-62
[18] = system: SF-295
[19] = system: SF-268
[20] = system: A498
[21] = system: RXF 393
[22] = system: A549
[23] = system: PC-3
[24] = system: NCI-H522
[25] = system: T47D
[26] = system: HL-60
[27] = system: KM12
[28] = system: NCI-H23
[29] = system: MDA-N
[30] = system: U-251
[31] = system: SW-620
[32] = system: 786-0
[33] = system: NCI-H226
[34] = system: OVCAR-4
[35] = system: HCT-116
[36] = system: SK-MEL-5
[37] = system: MDA-MB-435
[38] = system: NCI-H460
[39] = system: SNB-19
[40] = system: ACHN
[41] = system: COLO 205
[42] = system: CCRF-CEM
[43] = system: LOX IMVI
[44] = system: SN12C
[45] = system: CAKI-1
[46] = system: HT-29
[47] = system: MOLT-4
[48] = system: M14
[49] = system: BT-549
[50] = system: SK-MEL-28
[51] = system: IGROV-1
[52] = system: OVCAR-5
[53] = system: DU-145
[54] = system: RPMI-8226
[55] = system: OVCAR-3
[56] = system: K562
[57] = system: HCC 2998
[58] = system: SR

CCOC(=O)C1(C/C=C/CCl)CCCC1=O (configuration not stated)
GI50 [1]: 19.5 µM (inactive)
GI50 [2]: 16.6 µM (inactive)
GI50 [3]: 22.5 µM (inactive)
GI50 [4]: 35.2 µM (inactive)
GI50 [5]: 20.7 µM (inactive)
GI50 [6]: 21.1 µM (inactive)
GI50 [7]: 14.1 µM (inactive)
GI50 [8]: 18.9 µM
GI50 [9]: 20 µM (inactive)
GI50 [10]: 19.5 µM (inactive)
GI50 [11]: 33.3 µM (inactive)
GI50 [12]: 20.8 µM (inactive)
GI50 [13]: 19 µM (inactive)
GI50 [14]: 44 µM (inactive)
GI50 [15]: 16.4 µM (inactive)
GI50 [16]: 19.8 µM (inactive)
GI50 [17]: 20.5 µM (inactive)
GI50 [18]: 37.2 µM (inactive)
GI50 [19]: 25.4 µM (inactive)
GI50 [20]: 25.2 µM (inactive)
GI50 [21]: 16.8 µM (inactive)
GI50 [22]: 21.5 µM (inactive)
GI50 [23]: 30.5 µM (inactive)
GI50 [24]: 23.7 µM (inactive)
GI50 [25]: 23.1 µM (inactive)
GI50 [26]: 38.2 µM (inactive)
GI50 [27]: 20 µM (inactive)
GI50 [28]: 18.8 µM (inactive)
GI50 [29]: 17.9 µM (inactive)
GI50 [30]: 24.5 µM (inactive)
GI50 [31]: 20.3 µM (inactive)
GI50 [32]: 22.8 µM (inactive)
GI50 [33]: 14.3 µM (inactive)
GI50 [34]: 29.6 µM (inactive)
GI50 [35]: 17.2 µM (inactive)
GI50 [36]: 15.6 µM (inactive)
GI50 [37]: 20.3 µM (inactive)
GI50 [38]: 30.1 µM (inactive)
GI50 [39]: 23 µM (inactive)
GI50 [40]: 15.3 µM (inactive)
GI50 [41]: 26 µM (inactive)
GI50 [42]: 19.5 µM (inactive)
GI50 [43]: 14.9 µM (inactive)
GI50 [44]: 24.1 µM (inactive)
GI50 [45]: 29.6 µM (inactive)
GI50 [46]: 24.2 µM (inactive)
GI50 [47]: 35.1 µM (inactive)
GI50 [48]: 18.1 µM (inactive)
GI50 [49]: 18.2 µM (inactive)
GI50 [50]: 23 µM (inactive)
GI50 [51]: 18.3 µM (inactive)
GI50 [52]: 17.8 µM (inactive)
GI50 [53]: 31.1 µM (inactive)

CCOC(=O)/C(C(=O)Nc1cccc(C(F)(F)F)c1)=C(/N)N1CCCC1
GI50 [1]: > 100 µM (inactive)
GI50 [2]: 42.4 µM (inactive)
GI50 [3]: > 100 µM (inactive)
GI50 [4]: > 100 µM (inactive)
GI50 [5]: 20.1 µM (inactive)
GI50 [54]: > 100 µM (inactive)
GI50 [6]: > 100 µM (inactive)
GI50 [7]: > 100 µM (inactive)
GI50 [8]: > 100 µM
GI50 [10]: > 100 µM (inactive)
GI50 [11]: 52.4 µM (inactive)
GI50 [12]: 38 µM (inactive)
GI50 [13]: > 100 µM (inactive)
GI50 [14]: 27.2 µM (inactive)
GI50 [55]: > 100 µM (inactive)
GI50 [15]: 63 µM (inactive)
GI50 [16]: 23.4 µM (inactive)
GI50 [17]: 44.6 µM (inactive)
GI50 [18]: 42.2 µM (inactive)
GI50 [19]: 54.3 µM (inactive)
GI50 [20]: 41.6 µM (inactive)
GI50 [21]: 20.9 µM (inactive)
GI50 [22]: > 100 µM (inactive)
GI50 [23]: > 100 µM (inactive)
GI50 [24]: > 100 µM (inactive)
GI50 [25]: 47.8 µM (inactive)
GI50 [26]: > 100 µM (inactive)
GI50 [27]: > 100 µM (inactive)
GI50 [28]: > 100 µM (inactive)
GI50 [29]: > 100 µM (inactive)
GI50 [30]: 76.9 µM (inactive)
GI50 [31]: > 100 µM (inactive)
GI50 [32]: 52.6 µM (inactive)
GI50 [33]: 29.2 µM (inactive)
GI50 [34]: > 100 µM (inactive)
GI50 [35]: > 100 µM (inactive)
GI50 [37]: > 100 µM (inactive)
GI50 [38]: > 100 µM (inactive)
GI50 [39]: > 100 µM (inactive)
GI50 [56]: > 100 µM (inactive)
GI50 [40]: > 100 µM (inactive)
GI50 [41]: > 100 µM (inactive)
GI50 [42]: > 100 µM (inactive)
GI50 [43]: > 100 µM (inactive)
GI50 [44]: 41.9 µM (inactive)
GI50 [45]: > 100 µM (inactive)
GI50 [57]: > 100 µM (inactive)
GI50 [46]: > 100 µM (inactive)
GI50 [47]: > 100 µM (inactive)
GI50 [48]: > 100 µM (inactive)
GI50 [49]: > 100 µM (inactive)
GI50 [50]: > 100 µM (inactive)
GI50 [51]: > 100 µM (inactive)
GI50 [52]: > 100 µM (inactive)
GI50 [53]: > 100 µM (inactive)

OC1COC2CC(Nc3ccccn3)OC12 (configuration not stated)
GI50 [1]: > 100 µM (inactive)
GI50 [2]: > 100 µM (inactive)
GI50 [3]: > 100 µM (inactive)
GI50 [4]: > 100 µM (inactive)
GI50 [5]: > 100 µM (inactive)
GI50 [54]: > 100 µM (inactive)
GI50 [6]: > 100 µM (inactive)
GI50 [7]: > 100 µM (inactive)
GI50 [8]: > 100 µM
GI50 [9]: > 100 µM (inactive)
GI50 [10]: 56.9 µM (inactive)
GI50 [11]: > 100 µM (inactive)
GI50 [12]: > 100 µM (inactive)
GI50 [13]: > 100 µM (inactive)
GI50 [14]: > 100 µM (inactive)
GI50 [55]: > 100 µM (inactive)
GI50 [16]: > 100 µM (inactive)
GI50 [17]: > 100 µM (inactive)
GI50 [18]: > 100 µM (inactive)
GI50 [19]: > 100 µM (inactive)
GI50 [21]: > 100 µM (inactive)
GI50 [22]: > 100 µM (inactive)
GI50 [23]: > 100 µM (inactive)
GI50 [24]: > 100 µM (inactive)
GI50 [25]: > 100 µM (inactive)
GI50 [27]: > 100 µM (inactive)
GI50 [28]: > 100 µM (inactive)
GI50 [29]: > 100 µM (inactive)
GI50 [58]: > 100 µM (inactive)
GI50 [30]: > 100 µM (inactive)
GI50 [31]: > 100 µM (inactive)
GI50 [32]: > 100 µM (inactive)
GI50 [33]: > 100 µM (inactive)
GI50 [34]: > 100 µM (inactive)
GI50 [35]: > 100 µM (inactive)
GI50 [36]: > 100 µM (inactive)
GI50 [37]: > 100 µM (inactive)
GI50 [38]: > 100 µM (inactive)
GI50 [39]: > 100 µM (inactive)
GI50 [56]: > 100 µM (inactive)
GI50 [40]: > 100 µM (inactive)
GI50 [41]: > 100 µM (inactive)
GI50 [42]: > 100 µM (inactive)
GI50 [43]: > 100 µM (inactive)
GI50 [44]: > 100 µM (inactive)
GI50 [45]: > 100 µM (inactive)
GI50 [57]: > 100 µM (inactive)
GI50 [46]: > 100 µM (inactive)
GI50 [47]: > 100 µM (inactive)
GI50 [48]: > 100 µM (inactive)
GI50 [49]: > 100 µM (inactive)
GI50 [50]: > 100 µM (inactive)
GI50 [51]: > 100 µM (inactive)
GI50 [52]: > 100 µM (inactive)
